The values below come from ChEMBL document CHEMBL1123271, “Selective monoamine oxidase inhibitors. 4. 4-Aminophenethylamine derivatives with neuron-selective action” (J Med Chem, 1986).

The test system of assay [1] is Rattus norvegicus. Put plainly: Compound was tested for the behavioral changes in reserpinized rats that indicates the release of serotonin (5-HT syndrome) by subcuteneous administration. The format is functional.
The subject of assay [2] is Rattus norvegicus. Put plainly: Compound was tested for the behavioral changes in reserpinized rats that indicates the release of dopamine by subcuteneous administration. Format: functional.
Assay [3] relates to Rattus norvegicus. Put plainly: Compound was tested for the behavioral changes in reserpinized rats that indicates the release of norepinephrine (reversal of ptosis) by subcuteneous administration. Format: functional.
Assay [4] is filed under the species Rattus norvegicus. Put plainly: Determined from log concentration-inhibition curves using rat brain mitochondrial preparation as enzyme and phenethylamine (PEA) as a substrate. The format is functional.
For assay [5], the species on record is Rattus norvegicus. As to the kind of experiment: Compound was tested for its ability to inhibit norepinephrine uptake. Format: functional, organism-based.
Assay [6] is described as follows: Ratio (PEA/5-HT) of the compound. The format is functional.
Assay [7] is filed under the species Rattus norvegicus. As to the kind of experiment: Determined from log concentration-inhibition curves using rat brain mitochondrial preparation as enzyme and [14C]5-HT (5-HT) as a substrate. Format: functional.
Assay [8] is described as follows: Ratio between inhibition of outside DA neurons to that of inside DA neurons. Format: functional.
Assay [9] is described as follows: Ratio between inhibition of outside NE neurons to that of inside NE neurons. The format is functional.
Assay [10] is described as follows: Ratio between inhibition of outside 5-HT neurons to that of inside 5-HT neurons. Format: functional.
Assay [11] is filed under the species Rattus norvegicus. Put plainly: Compound was tested for its ability to inhibit dopamine uptake. The format is functional, organism-based.
The species entered for assay [12] is Rattus norvegicus. Put plainly: Compound was tested for its ability to inhibit serotonin uptake. The format is functional, organism-based.
Assay [13] is filed under the species Rattus norvegicus. As to the kind of experiment: Compound was tested for its ability to inhibit norepinephrine uptake. The format is functional, organism-based.

SMILES strings stand for the structures.

What is called IC50 is the concentration that inhibits the measured activity by half. Low readings indicate inhibition by little substance, high ones a need for much substance. On to `CC(N)Cc1ccc(N)cc1Cl` (centres undefined), for which the Least dose is 33 mg/kg in assay [1], greater than 131 mg/kg in assay [2] and 16 mg/kg in assay [3]. Moreover, the IC50 in [4] worked out at 750 µM; in assay [5], 0.19 µM; in [7], 0.27 µM; in assay [11], 0.07 µM; in assay [12] it was 3 µM. Also, the Ratio is 2780 in assay [6], 3.3 in assay [8], greater than 70 in [9] and 20 in assay [10].
For `Cc1cc(N)ccc1CC(C)(C)N`, the Least dose in assay [1], in [2] and in assay [3] was greater than 269 mg/kg in each case. Besides, the IC50 in assay [4] was 1500 µM; in [5], 0.36 µM; in [7], 20 µM; in [11], 40 µM; in assay [12], 2.6 µM. Besides, the results for the Ratio in [6] and in assay [10] were 75 and greater than 1, respectively.
With `CC(N)Cc1ccc(N)cc1` (centres undefined), the values for the Least dose in assay [1], in [2] and in assay [3] were 276 mg/kg, 72 mg/kg and 72 mg/kg, respectively. Besides, the IC50 was determined as 7000 µM in [4]; 0.07 µM in assay [5]; 6.8 µM in assay [7]; 0.16 µM in assay [11]; 20 µM in [12]. The Ratio was 1030 in assay [6], 19 in assay [8], greater than 10 in assay [9] and >>5 in assay [10].
Take `Cc1cc(N)ccc1CC(C)N` (centres undefined): the Least dose in assay [1] was 270 mg/kg; in assay [2] it was greater than 270 mg/kg; in [3] it was 270 mg/kg. The IC50 in [4] was 2500 µM; in [5], 0.32 µM; in assay [7], 1.6 µM; in [11], 11 µM; in assay [12] it was 9 µM. For the same compound, the Ratio in assay [6] is 1560; in assay [8] it was 9.7; in assay [9], greater than 12; in [10], >>5.
Consider `CC(C)(N)Cc1ccc(N)cc1Cl`, for which the values for the Least dose in assay [1], in assay [2] and in assay [3] were greater than 247 mg/kg, greater than 247 mg/kg and 247 mg/kg, respectively. In addition, the IC50 in assay [4] was found to be 1700 µM; in assay [7] it was 1.3 µM; in assay [11] it was 15 µM; in assay [13], 0.6 µM; in assay [12], 5.5 µM. Also, the Ratio is 1310 in [6], 2.5 in assay [8], 4.5 in assay [9] and 6 in [10].
Take `CC(C)(N)Cc1ccc(N)cc1F`: the Least dose in assay [1] was greater than 264 mg/kg; in assay [2], 264 mg/kg; in [3], 264 mg/kg. Further, the IC50 in assay [4] stood at 2800 µM; in assay [5], 0.32 µM; in [7], 6 µM; in assay [11], 1.6 µM; in assay [12] it was 27 µM. The Ratio was 467 in assay [6], 4.1 in assay [8], greater than 2 in assay [9] and 1.6 in [10].
On to `CCc1cc(N)ccc1CC(C)N` (centres undefined), for which the Least dose in [1], in [2] and in assay [3] was greater than 269 mg/kg each time. The IC50 amounted to 1200 µM in assay [4]; 2 µM in [5]; 60 µM in assay [7]; 20 µM in assay [11]; 10 µM in [12].
For `CC(N)Cc1ccc(N)cc1F` (centres undefined), the Least dose turned out to be 140 mg/kg in assay [1], 35 mg/kg in assay [2] and 17 mg/kg in assay [3]. The IC50 worked out at 800 µM in assay [4]; 0.05 µM in assay [5]; 0.75 µM in assay [7]; 0.42 µM in [11]; 1.3 µM in assay [12]. Moreover, the Ratio came out at 1070 in [6], 23 in assay [8], 71 in assay [9] and 9 in [10].
As for `Cc1cc(N)c(Br)cc1CC(C)N` (centres undefined), the values for the Least dose in assay [1], in [2] and in [3] were 211 mg/kg, greater than 211 mg/kg and 211 mg/kg, respectively. Also, the IC50 in [4] stood at 290 µM; in assay [5], 0.55 µM; in assay [7] it was 1.5 µM; in assay [11], 2 µM; in [12], 6.5 µM. The Ratio in assay [6] is 193; in [8], 2.1; in assay [9] it was greater than 4; in assay [10], greater than 2.
Consider `CC(N)Cc1c(Cl)cc(N)cc1Cl` (centres undefined), for which the figures for the Least dose in assay [1], in assay [2] and in assay [3] were greater than 229 mg/kg, 229 mg/kg and 115 mg/kg, respectively. Also, the IC50 in [4] worked out at 340 µM; in assay [5], 2.2 µM; in assay [7], 0.012 µM; in [11], 30 µM; in assay [12], 30 µM. The Ratio in assay [6] came out at 28300; in assay [8] it was 1.5; in [9], 2.2; in assay [10] it was 1.
